The results in this text go back to patent US9598384B2, “3-(2-amino-ethyl)-alkylidene)-thiazolidine-2,4-dione and 1-(2-amino-ethyl)-alkylidene-1,3-dihydro-indol-2-one derivatives as selective sphingosine kinase 2 inhibitors” (VIRGINIA COMMONWEALTH UNIVERSITY, priority 2012, dated 2017).

One data set addresses T1, SphK2 (Homo sapiens, UniProt Q9NRA0).
T1 sequence (Q9NRA0 1-654): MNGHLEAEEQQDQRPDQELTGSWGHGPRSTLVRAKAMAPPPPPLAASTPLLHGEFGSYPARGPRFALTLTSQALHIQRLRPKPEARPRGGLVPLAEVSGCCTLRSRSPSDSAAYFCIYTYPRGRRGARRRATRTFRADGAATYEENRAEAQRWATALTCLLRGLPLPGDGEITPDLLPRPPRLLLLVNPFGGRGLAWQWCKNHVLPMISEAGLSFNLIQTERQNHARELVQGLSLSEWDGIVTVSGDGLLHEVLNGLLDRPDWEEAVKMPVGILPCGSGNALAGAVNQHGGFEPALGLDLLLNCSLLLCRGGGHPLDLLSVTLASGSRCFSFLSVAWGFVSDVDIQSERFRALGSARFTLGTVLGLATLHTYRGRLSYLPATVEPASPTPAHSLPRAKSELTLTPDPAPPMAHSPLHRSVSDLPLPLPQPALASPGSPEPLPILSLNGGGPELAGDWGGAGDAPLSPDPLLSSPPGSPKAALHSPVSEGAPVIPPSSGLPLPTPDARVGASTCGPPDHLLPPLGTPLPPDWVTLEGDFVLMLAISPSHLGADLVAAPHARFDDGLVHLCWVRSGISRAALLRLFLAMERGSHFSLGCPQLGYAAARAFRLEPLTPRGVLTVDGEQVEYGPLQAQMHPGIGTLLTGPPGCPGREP
In words: SphK2 activity assay (sphingosine substrate, with kinetic study). Type of data set: biochemical. Conditions: relative activity vs no inhibitor; compounds at 10 μM (FIGS. 1, 3, 5).

The next data set deals with SphK1 (Homo sapiens, UniProt Q9NYA1). The experiment in a line: SphK1 activity assay. The data set is classed as biochemical. Conditions: relative activity vs no inhibitor; compounds at 10 μM (FIGS. 1, 4, 6). The protocol: A) SphK1 and SphK2 activities were measured with 5 μM sphingosine in the absence or presence of the indicated concentrations of K145 or 10 μM DMS. Data are expressed as percentage SphK activity in the absence of inhibitor; B) Effect of K145 (10 μM) on activity of the indicated enzymes was tested by SelectScreen Kinase Profiling from Invitrogen. CaMK11β, Ca2+/calmodulin-dependent protein kinase II; CDK2, cyclin-dependent kinase 2; EGFR, Epidermal Growth Factor Receptor; Fyn, Fyn Kinase (p55); ERK2, extracellular signal-regulated kinase 2; ERK1, extracellular signal-regulated kinase 1; PKA, protein kinase A; PKCα, protein kinase C α; P13K, phosphatidylinositide 3-kinase. Data are expressed as percentage of control activity averaged from 2 independent experiments.
FIG. 3. SphK2 was incubated with indicated compounds at 10 μM, then the activity of SphK2 was determined. The data shown here is a relative activity of SphK2 compared to control (no inhibitor, column labeled Sph in the Figure). 96047 is a known SpK2 inhibitor. A5, B26, K25 and QLA13 are known compounds [Li et al. (2009) Bioorg Med Chem Lett 19: 6042-6046; Liu et al. (2012) Eur J Med Chem 47: 125-137] and were tested for purposes of comparison. “A” and “B” refer to different batches of a compound. FIG. 4. SphK1 was incubated with indicated compounds at 10 μM, then the activity of SphK1 was determined. The data shown here is a relative activity of SphK1 compared to control (no inhibitor, column labeled Sph in the Figure). 96091 is a known Spk1 inhibitor. A5, B26, K25 and QLA13 are as above for […]. “A” and “B” refer to different batches of a compound.
FIG. 6. SphK1 was incubated with indicated compounds at 10 μM, then the activity of SphK2 was determined. The data shown here is a relative activity of SphK2 compared to control (no inhibitor).

Data set [1] deals with human leukemia U937 cells. The experiment in a line: Cell viability assay in human leukemia U937 cells. Type of data set: cell-based. The settings on record: Homo sapiens, U-937; 24 hrs treatment, MTT assay; read-out: IC50 ± SEM, inhibition of U937 cell proliferation. The protocol: Cells were cultured at a density of 5×10^4 (U937) or 1×10^4 (PC-3, DU145, M12, HT29) cells per well in flat bottomed 96-well plates and treated with various concentrations of test compound at 37° C. (5% CO2). After 24 h, 20 μL of CellTiter 96® Aqueous One Solution Reagent (Promega, Madison, Wis.) was added to each well according to the manufacturer's instructions. After 1 hour, the cell viability was determined by measuring the absorbance at 490 nm using a micro-plate reader.

In data set [2] the test system is Raf/MEK/ERK and PI3K/Akt signaling pathways. The experiment in a line: Western blot analysis of ERK and Akt phosphorylation. Type of data set: cell-based. The settings on record: Western blot, FIGS. 9 and 10. The protocol:
Cells (5×10^5 per ml) were treated with various concentrations of test compound at 37° C. (5% CO2) for 3 hrs, then stimulated with TPA at a final concentration of 200 nM for 20 min. Samples from whole-cell pellets were prepared and 30 μg protein for each condition was subjected to SDS-PAGE, transferred onto a PVDF membrane, and blocked with 5% fat-free milk for 30 min. The membrane is probed with primary antibodies overnight at 4° C. followed by incubation with horseradish peroxidase-labeled anti-mouse IgG (1:5000, BD Bioscience). The immunoreactive bands are detected by chemilluminescence methods (Pierce) and visualized on Kodak Omat film. The following primary antibodies were used: phospho-p44/42 MAPK (ERK1/2, Thr202/Tyr204), p44/42 MAPK, phospho-p90RSK (Thr359/Ser363), RSK1/RSK2/RSK3 (Cell Signaling). Blots were reprobed with antibodies against α-tubulin to ensure equal loading and transfer of proteins.

Another data set concerns U937 cells. The experiment in a line: Cell apoptosis assay, annexin V/PI flow cytometry. The data set is classed as cell-based, human. Conditions: 24 hrs treatment. The protocol:
Apoptosis was measured by flow cytometry using annexin V/propidium iodide (PI) as staining reagent. […] The cells were then incubated with annexin V-fluorescein isothiocyanate (FITC) (BD PharMingen, San Diego, Calif.) and 5 μg/mL propidium iodide (PI), and incubated for 15 minutes at room temperature in the dark per the manufacturer's instructions. The samples were analyzed by flow cytometry using a Becton Dickinson FACScan (Becton Dickinson, San Jose, Calif.) within 1 hr to determine the percentage of cells displaying annexin V staining (early apoptosis) or both annexin V and PI staining (late apoptosis).

The test system of data set [3] is U937 xenograft. In words: U937 xenografts in nude mice, i.p. administration. Type of data set: in vivo, BALB/c-nu mice. The settings on record: 15 mg/kg daily i.p. The procedure: D) Body weights of mice throughout treatment. Data are expressed as mean value±SD. *P<0.05 compared to control group.
Female nude mice (BALB/c-nu, n=7) were inoculated with 3×10^7 U937 cells subcutaneously in the right flank. After 7 days of implant of U937 cells, mice were treated daily with Vehicle (control), or Tamibarotene (15 mg/Kg, positive control), or Formula III (K145) (15 mg/Kg) by i.p. administration. Tumor size was measured every other day.

Data set [4] has as its system U937 xenograft. In words: U937 xenografts in nude mice, oral administration. Conditions: oral gavage daily 15 days; K145 50 mg/kg, tamibarotene 20 mg/kg.
Description: BALB/c-nu mice (n=7) with palpable U937 xenograft were treated daily with vehicle, tamibarotene (20 mg/kg), or K145 (50 mg/kg) for 15 days by oral gavage. After treatment, animals were sacrificed and tumors were removed, weighed and images were taken. […] Data are expressed as mean value±SEM. *P<0.05 compared to control group.
In this experiment, K145 was given at 50 mg/kg by oral gavage daily for 15 days and tumor volume and animal weights were measured every other day. Again, tamibarotene (20 mg/kg) was used as positive control.

Molecules are shown by their SMILES.

SphK1, sequence (Q9NYA1 whole entry, species assumed): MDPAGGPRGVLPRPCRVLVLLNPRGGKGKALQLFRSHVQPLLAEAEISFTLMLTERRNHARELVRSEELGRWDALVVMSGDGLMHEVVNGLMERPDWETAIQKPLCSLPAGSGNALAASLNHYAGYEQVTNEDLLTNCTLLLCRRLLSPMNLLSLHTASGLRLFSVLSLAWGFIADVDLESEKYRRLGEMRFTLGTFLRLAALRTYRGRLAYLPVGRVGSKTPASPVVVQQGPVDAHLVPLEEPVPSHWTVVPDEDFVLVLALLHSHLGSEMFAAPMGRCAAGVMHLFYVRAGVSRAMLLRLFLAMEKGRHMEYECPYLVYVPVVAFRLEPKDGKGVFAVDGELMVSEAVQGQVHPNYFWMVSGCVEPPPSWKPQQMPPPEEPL
Description for SphK2: A) SphK1 and SphK2 activities were measured with 5 μM sphingosine in the absence or presence of the indicated concentrations of K145 or 10 μM DMS. […] Data are expressed as percentage of control activity averaged from 2 independent experiments. Data are expressed as mean value±SEM.
SphK2 was incubated with indicated compounds at 10 μM, then the activity of SphK2 was determined. The data shown here is a relative activity of SphK2 compared to control (no inhibitor, column labeled Sph in the Figure). […] “A” and “B” refer to different batches of a compound.
SphK2 was incubated with indicated compounds at 10 μM, then the activity of SphK2 was determined. The data shown here is a relative activity of SphK2 compared to control (no inhibitor).

With `CCCCCCCOc1ccc(CC/C=C2\SC(=O)N(CCNC(=N)N)C2=O)cc1` [K11167], the “inhibition of SphK2 activity (in words)” value against SphK2 is “inhibits both Sphk1 and Sphk2”. Also, the “inhibition of SphK1 activity (in words)” value against SphK1 was “inhibits both Sphk1 and Sphk2”.
Consider `CCCCCCCCCCCOc1ccc(CC/C=C2\SC(=O)N(CCN)C2=O)cc1` [KLII123], for which the “inhibition of SphK2 activity (in words)” value at SphK2 is reported as “inhibited SphK2 selectively”. Moreover, the “inhibition of SphK1 activity (in words)” value against SphK1 is given as “did not inhibit SphK1 or inhibited SphK1 to a lesser extent”.
For the molecule `CCCCCCCCCOc1ccc(CC/C=C2\SC(=O)N(CCN)C2=O)cc1` [KLII157], the “inhibition of SphK2 activity (in words)” value on SphK2 was “inhibited SphK2 selectively”. In addition, on SphK1, the “inhibition of SphK1 activity (in words)” value was “did not inhibit SphK1 or inhibited SphK1 to a lesser extent”.
In the case of `NCCN1C(=O)C(=CCCC2CCCCC2)c2ccccc21` [S-II-36, 1-(2-aminoethyl)-3-(3-cyclohexylpropylidene)indolin-2-one], the IC50 in data set [1] worked out at 2700 ± 200 nM.
For `NCCN1C(=O)C(=CCCc2ccc(F)cc2)c2ccccc21` [S-II-39, 1-(2-aminoethyl)-3-(3-(4-fluorophenyl)propylidene)indolin-2-one], the IC50 in data set [1] was determined as 2690 ± 60 nM.
With `NCCN1C(=O)C(=CCCC2CC2)c2ccccc21` [S-II-40, 1-(2-aminoethyl)-3-(3-cyclopropylpropylidene)indolin-2-one], in data set [1], the IC50 amounted to 1160 ± 50 nM.
On the same count and under the same terms, with `NCCN1C(=O)C(=CCCc2ccc(Cl)cc2)c2ccccc21` [S-II-60, 1-(2-aminoethyl)-3-(3-(4-chlorophenyl)propylidene)indolin-2-one] the figure was 4000 ± 700 nM.
As to `NCCN1C(=O)C(=CCCc2ccc([N+](=O)[O-])cc2)c2ccccc21` [S-II-61, 1-(2-aminoethyl)-3-(3-(4-nitrophenyl)propylidene)indolin-2-one], in data set [1], the IC50 came out at 3600 ± 200 nM.
For the molecule `COc1ccc(CCC=C2C(=O)N(CCN)c3ccccc32)cc1` [S-II-71, 1-(2-aminoethyl)-3-(3-(4-methoxyphenyl)propylidene)indolin-2-one], in data set [1], the IC50 amounted to 920 ± 40 nM. For the same molecule, in data set [2], the “inhibition of Raf/MEK/ERK and PI3K/Akt signaling pathways” value is listed as “inhibit”. The “apoptotic effects in U937 cells” value in the data set on U937 cells is “induced both early and late apoptotic effect”.
Take `NCCN1C(=O)C(=CCCC23CC4CC(CC(C4)C2)C3)c2ccccc21` [S-II-73, 3-(3-(3r,5r,7r)-adamantan-1-yl)propylidene)-1-(2-aminoethyl)indolin-2-one]: on SphK2, the “inhibition of SphK2 activity (in words)” value is “inhibited SphK2 selectively”. Also, on SphK1, the “inhibition of SphK1 activity (in words)” value was “did not inhibit SphK1 or inhibited SphK1 to a lesser extent”.
As to `CCCCOc1ccc(CCC=C2C(=O)N(CCN)c3ccccc32)cc1` [S-II-78, 1-(2-aminoethyl)-3-(3-(4-butoxyphenyl)propylidene)indolin-2-one], the IC50 in data set [1] was found to be 4600 ± 800 nM.
Consider `CCOc1ccc(CCC=C2C(=O)N(CCN)c3ccccc32)cc1` [S-II-102, 1-(2-aminoethyl)-3-(3-(4-ethoxyphenyl)propylidene)indolin-2-one], for which, in data set [1], the IC50 came out at 950 ± 110 nM.
Turning to `CCCCCCCOc1ccc(CCC=C2C(=O)N(CCN)c3ccccc32)cc1` [S-II-103, 1-(2-aminoethyl)-3-(3-(4-(heptyloxy)phenyl)propylidene)indolin-2-one], the “inhibition of SphK2 activity (in words)” value against SphK2 is “inhibited SphK2 selectively”. In addition, at SphK1, the “inhibition of SphK1 activity (in words)” value is listed as “did not inhibit SphK1 or inhibited SphK1 to a lesser extent”. In addition, the IC50 in data set [1] was found to be 3500 ± 300 nM. Further, the “inhibition of Raf/MEK/ERK and PI3K/Akt signaling pathways” value in data set [2] is “inhibit”. Also, the “apoptotic effects in U937 cells” value in the data set with U937 cells is “mainly induced late apoptotic effects”.
For the molecule `CCCCCCCOc1ccc(CC/C=C2/C(=O)N(CCN)c3ccccc32)cc1` [S-II-104], at SphK2, the “inhibition of SphK2 activity (in words)” value is listed as “inhibited SphK2 selectively”. The “inhibition of SphK1 activity (in words)” value at SphK1 is given as “did not inhibit SphK1 or inhibited SphK1 to a lesser extent”.
On to `CCCCCCCCC=C1C(=O)N(CCN)c2ccccc21` [S-II-129, 1-(2-aminoethyl)-3-nonylideneindolin-2-one], for which the IC50 in data set [1] worked out at 2128 ± 6 nM.
Turning to `CC1(C)CCC(C)(C)c2cc(NC(=O)c3ccc(C(=O)O)cc3)ccc21` [tamibarotene, reference compound], the “TGI (tumor growth inhibition)” value in the data set with U937 xenograft [3] (17 days) is on record as 50.4%; in the data set with U937 xenograft [4] it was 33.37%. In addition, the “body weights of mice” value in the data set with U937 xenograft [3] (compared with vehicle) was “caused body weight decreases”.
